Data set [1] can be described thus: Degradation on exposure to direct sunlight in quartz tubes (loss of compound after 48 h, GC MS). Format: physicochemical. Conditions: for loss of compound: exposure to direct sunlight, quartz tubes, seawater solutions, after 48 h; for stability in seawater relative to tributyltin bromide, presence of light: in words. On the procedure:
Degradation tests of the compounds included making ethanol solutions of the organotin bromides that were prepared at a concentration of approximately 1 mg/cm^3. Aliquots of the ethanol solutions were added to either 3.5% sodium bromide (NaBr) containing 1% acetone or to filtered seawater to obtain approximately 1-5 ppm concentrations in the seawater. […] Aliquots (10 cm^3) of the solutions were extracted at timed intervals with 1 cm^3 hexane after acidification with 0.1 cm^3 concentrated hydrochloric acid (HCl). Samples were analyzed by GC MS.
(§1) Half-lives of 33 days, 17 days and 16 days were estimated for tributyltin bromide, tri-3-butenyltin bromide and tri-1-butenyltin bromide in seawater, protected from UV light and held at a constant room temperature.

A short description of data set [2]: Degradation in seawater protected from UV light at constant room temperature (half-life, GC MS). It is filed as physicochemical. The conditions noted are these: for stability in seawater relative to tributyltin bromide, absence of light: in words; for Half-life: protected from UV light, constant room temperature, estimated. On the procedure:
Degradation tests of the compounds included making ethanol solutions of the organotin bromides that were prepared at a concentration of approximately 1 mg/cm^3. Aliquots of the ethanol solutions were added to either 3.5% sodium bromide (NaBr) containing 1% acetone or to filtered seawater to obtain approximately 1-5 ppm concentrations in the seawater. The sodium bromide (NaBr) solution was placed in 125 cm^3 quartz tubes and exposed to sunlight over 48 h. The seawater solutions were kept in closed 500 cm^3 polycarbonate jars in the laboratory. Aliquots (10 cm^3) of the solutions were extracted at timed intervals with 1 cm^3 hexane after acidification with 0.1 cm^3 concentrated hydrochloric acid (HCl). Samples were analyzed by GC MS.
as §1

Data set [3] has as its system Photobacterium phosphoreum NRRL B-11177. Kind of data set: Microtox toxicity bioassay: reduction in light output by a luminescent bacterium. Format: cell-based. Conditions: relative to tributyltin bromide, from EC50. On the procedure:
Relative toxicity of compounds was determined using a Microtox Toxicity Analyzer Model 2055, manufactured by Microbics Corporation, Carlsbad, Calif., USA. This bioassay measures the relative reduction in light output by a luminescent bacterium, Photobacterium phosphoreum NRRL B-11177, when exposed to a toxicant. The bacteria are provided in a convenient freeze-dried form by Microbics Corporation and are immediately activated by the addition of 1 cm^3 of distilled water.
For Microtox testing, stock solutions of the compounds were prepared in 95% ethanol at approximately 1-2 mg/cm^3 Appropriate amounts of the ethanol solutions were added to 2% aqueous sodium chloride (NaCl) to achieve a workable concentration while keeping the ethanol concentration as low as possible. Typically, the ethanol concentration was about 0.05%.
Serial dilutions of each compound for measurement were performed in the Microtox photometer/incubator at 15° C. Controls consist of triplicate 1 cm^3 portions of 2% sodium chloride and candidate toxics were prepared in and subsequently serially diluted in 2% sodium chloride, with a final volume of 1 cm^3 for each dilution. After a 5-minute period for temperature equilibration, 10 μl of rehydrated bacteria was added to each of the controls and the serial dilutions of the test compound. […]

The nature of data set [4]: Stability and chemical reactivity of the butenyltin compounds (neat, in solvents, in reaction mixture). The conditions noted are these: for stability / reactivity in the synthesis mixture: crude reaction mixture, synthesis side-products; for stability as neat compound and in inert solvents: inert solvents (also ethanol). Format: physicochemical. An excerpt: Synthesis of the tetrabutenyltins presented no great difficulty as long as the Grignard reagent was present in large excess to assure complete alkylation. […] Under these conditions alkenyltin compounds were identified containing various numbers of […] groups in the mixture.
The other two tributenyltin bromides were stable as neat compounds, in inert solvents and in ethanol for a reasonable length of time. Chemical reactivity appeared to follow the order allyl > vinyl > alkyl.

On to `CCC=[CH][Sn]([Br])([CH]=CCC)[CH]=CCC` [tri-1-butenyltin bromide], for which, in data set [1], the loss of compound result was “about 80%” and the “stability in seawater relative to tributyltin bromide, presence of light” value was “less stable in seawater”. Besides, in data set [2], the “stability in seawater relative to tributyltin bromide, absence of light” value is recorded as “less stable in seawater” and the Half-life is given as 16 days. For the same compound, in data set [3], the “factor by which less toxic than tributyltin bromide” value is listed as “about three”. For the same compound, in data set [4], the “stability / reactivity in the synthesis mixture” value (shortened to “stability / reactivity”) was “tended spontaneously to form black precipitates during solvent evaporation of the crude mixture”; the “stability as neat compound and in inert solvents” value is “stable as neat compounds and in inert solvents”.

As to `CC=C[CH2][Sn]([Br])([CH2]C=CC)[CH2]C=CC` [tri-2-butenyltin bromide], the “stability / reactivity” value in data set [4] (listed as Tri-2-butenyltin bromide) was “so reactive with the synthesis side-products that it could not be isolated”; in data set [4] (listed as tri-2butenyltin bromide) it was “highly reactive and therefore transient”. Besides, the “stability sufficient for degradation and toxicity determinations” value in data set [4] (in words) is reported as “too reactive for other than structural studies”.

Turning to `C=CC[CH2][Sn]([Br])([CH2]CC=C)[CH2]CC=C` [tri-3-butenyltin bromide], in data set [1], the loss of compound is ~100% and the “stability in seawater relative to tributyltin bromide, presence of light” value is reported as “less stable in seawater”. For the same compound, in data set [2], the “stability in seawater relative to tributyltin bromide, absence of light” value is recorded as “less stable in seawater” and the Half-life is listed as 17 days. Further, the “factor by which less toxic than tributyltin bromide” value in data set [3] is “six”. In addition, the “order of chemical reactivity” value in data set [4] (allyl > vinyl > alkyl) is “fell between tri-1-butenyltin bromide, containing vinylic carbons, and tributyltin bromide, the alkyl compound”. Besides, in data set [4], the “stability / reactivity” value was “tended spontaneously to form black precipitates during solvent evaporation of the crude mixture”; the “stability as neat compound and in inert solvents” value was “stable as neat compounds and in inert solvents”.

`CCC[CH2][Sn]([Br])([CH2]CCC)[CH2]CCC` [tributyltin bromide, reference compound]: the loss of compound entry in data set [1] is listed as “about 15%”. The Half-life in data set [2] was 33 days.

Values taken from patent US5006554A, “Organotin compounds” (The United States of America as represented by the …, priority 1989, dated 1991).
